Assay results as given in patent US9447081B2, “Substituted pyrimidines as pharmaceuticals and insecticides” (SHENYANG SINOCHEM AGROCHEMICALS R&D CO., LTD., priority 2012, dated 2016).

How the values were obtained:
[1] = tested on: cucumber downy mildew; test: Protectant activity in vivo (whole plant), cucumber downy mildew
Protocol: (§1) The method is as followed: The whole plant is used in this test. The compound is dissolved in a proper solvent to get mother solution. The proper solvent is selected from acetone, methanol, DMF and so on according to their dissolving capability to the sample. […] The testing solution is sprayed to the host plant by a special plant sprayer. The plant is inoculated with fungus after 24 hours. According to the infecting characteristic of fungus, the plant is stored in a humidity chamber and then transferred into greenhouse after infection is finished. And the other plants are placed in greenhouse directly. The activity of compound is obtained by eyeballing after 7 days in common.

[2] = tested on: diamond back moth; test: Insecticidal activity against diamond back moth (airbrush spray); type: in vivo; details: mortality after 72 h; for pest or weed control at 600 µg/mL: read-out: control of the second instar larvae of diamond back moth
Protocol: (§2) Compounds were dissolved in mixed solvent (acetone:methanol=1:1), and diluted to required concentration with water containing 0.1% of tween 80.
(§3) Diamond back moth, armyworm, Green Peach Aphid and carmine spider mite were used as targets and the method of spraying by airbrush was used for determination of insecticidal biassays.
(§4) The method of spraying by airbrush: The cabbage leaves were made into plates of 2 cm diameter by use of punch. A test solution (0.5 ml) was sprayed by airbrush at the pressure of 0.7 kg/cm^2 to both sides of every plate. 10 Second instar larvae were put into the petri-dishes after the leaf disc air-dried and 3 replicates were set for each treatment. Then the insects were maintained in observation room (25° C., 60˜70% R.H.). Scores were conducted and mortalities were calculated after 72 h.

[3] = tested on: wheat powdery mildew; test: Protectant activity in vivo (whole plant), wheat powdery mildew
Protocol: as §1

[4] = tested on: carmine spider mite; test: Acaricidal activity against carmine spider mite (airbrush spray); type: in vivo; details: Tetranychus cinnabarinus; 100 mg/L, adults, mortality after 72 hrs
Protocol: as §2, §3
Method: Broadbean shoots with two true leaves in pot were taken, the healthy adults of carmine spider mite were inoculated to the leaves. The adults were counted and then sprayed with airbrush at the pressure of 0.7 kg/cm^2 and at dose of 0.5 ml. 3 replicates were set for each treatment. And then they were maintained in standard observation room. Scores were conducted and mortalities were calculated after 72 hrs.

[5] = tested on: Green peach aphids (Myzus Persicae Sulzer); test: Activity against green peach aphid (airbrush foliar spray); type: in vivo; details: death rate after 48 h; for pest or weed control at 600 µg/mL / pest or weed control at 100 µg/mL / pest or weed control at 10 µg/mL: Myzus persicae, foliar, 48 h; for pest or weed control at 600 µg/mL / pest or weed control at 100 µg/mL: read-out: Insecticidal activity against peach aphid (control); for Insecticidal activity against peach aphid / pest or weed control at 10 µg/mL: 10 mg/L; for pest or weed control at 10 µg/mL: read-out: Insecticidal activity against peach aphid
Protocol: as §2, §3
Method: Filter papers were put in culture dishes (Diameter=6 cm), and water was dripped on filter papers for preserving moisture. Green peach aphids (Myzus Persicae Sulzer) were maintained on cabbage. Leaves (Diameter=3 cm) of approximately 15-30 aphids were put in the culture dishes. Bioactivity tests were used the method of Airbrush Foliar Spray, pressure=10 psi (0.7 kg/cm2), spray volume=0.5 mL. The studies were conducted at three constant temperatures 25±1 C. in incubator cabinets with 60±5% RH. Survey the survival aphids after 48 h and calculate the death rates.

[6] = tested on: cucumber gray mold; test: Fungicidal activity in vitro (96-well, High Through Put), cucumber gray mold; type: cell-based; details: 25 mg/L, 24 hours; for inhibition at 25 µg/mL: read-out: inhibition rate against cucumber gray mold
[7] = tested on: rice blast; test: microbe, parasite or virus in culture; type: cell-based
[8] = tested on: armyworm; test: Insecticidal activity against armyworm (airbrush spray); type: in vivo; details: second instar larvae, mortality after 72 h
Protocol: as §2, §3
as §4, with “corn” for “cabbage”

[9] = tested on: corn rust; test: Protectant activity in vivo (whole plant), corn rust; details: for pest or weed control at 400 µg/mL / pest or weed control at 100 µg/mL / pest or weed control at 25 µg/mL: Zea mays, 168 h, read-out: protectant activity against corn rust
Protocol: as §1

[10] = tested on: human bladder cancer cell line T24; test: In vitro cell inhibition assay against human cancer cell T24; type: cell-based; details: 10 μM, incubation for one week, crystal violet
Protocol: The tested compounds are dissolved in DMSO and diluted to designed concentration with culture medium.
The of cell culture technology in vitro was selected to evaluate growth inhibition rate against human bladder cancer cell line T24. 1000 to 3000 cells were inoculated into 24-well plate, followed by addition of cell culture medium (1 mL) known for technicans in this field (culture medium is RMPI-1640), after cells were cultured in incubator (CO2 5%, 37° C.) for 24 hours, then the tested compounds with designed concentration were added to each well. […] After incubation for one week, the culture medium was removed, the plate wells were washed with cold PBS once, fixed with 1% formalin at room temperature for 10 minutes, and washed with cold PBS one more time, followed by stain with 0.1% crystal violet for 30 minutes. Crystal violet can be recycled. The stained cells were washed with deionized water gently, dried in the air and reserved, were then incubated for 4 h. The inhibition rate was calculated according to the left cells of each treatment and contrast.
The inhibition rate=the left cells of each treatment/the left cells of contrast×100%

[11] = Cucumis sativus, 168 h, 400 mg/L, read-out: protectant activity against cucumber downy mildew
[12] = Triticum aestivum, 168 h, 400 mg/L, read-out: protectant activity against wheat powdery mildew
[13] = Pyricularia oryzae, 24 h, read-out: inhibition rate against rice blast
[14] = Cucumis sativus, 168 h, 100 mg/L, read-out: protectant activity against cucumber downy mildew
[15] = Triticum aestivum, 168 h, 25 mg/L, read-out: protectant activity against wheat powdery mildew
[16] = Triticum aestivum, 168 h, 100 mg/L, read-out: protectant activity against wheat powdery mildew

SMILES | pest or weed control at 400 µg/mL [1, 11] | pest or weed control at 600 µg/mL ([2]; 600 mg/L) | pest or weed control at 400 µg/mL [3, 12] | pest or weed control at 100 µg/mL [4] | pest or weed control at 600 µg/mL ([5]; 600 mg/L) | inhibition at 25 µg/mL [6] | inhibition at 25 µg/mL [7, 13] | pest or weed control at 600 µg/mL ([8]; 600 mg/L) | pest or weed control at 400 µg/mL ([9]; 400 mg/L) | pest or weed control at 100 µg/mL ([9]; 100 mg/L) | pest or weed control at 100 µg/mL ([5]; 100 mg/L) | other results
Cc1c(Cl)c(NCCc2ccc3c(c2)OCO3)nc[n+]1CC(=O)c1ccc(Cl)cc1 [CK10] | 0% | 0% | 0% | 0% | 0% | 0% | 0% | 0% | 0% | – | – | –
CCc1ncnc(NCCc2ccc3c(c2)OCO3)c1Cl [Compound 6] | – | – | – | – | – | – | – | – | – | – | – | control of the second instar larvae of diamond back moth ([2]; 100 mg/L): 90%; control of the second instar larvae of diamond back moth ([2]; 600 mg/L): 100%; protectant activity against wheat powdery mildew ([3]; 6.25 mg/L): 85%; protectant activity against wheat powdery mildew ([3]; 25 mg/L): 90%; protectant activity against wheat powdery mildew ([3]; 100 mg/L): 95%; protectant activity against wheat powdery mildew ([3]; 400 mg/L): 100%; Insecticidal activity against peach aphid [5]: 100%; Insecticidal activity against peach aphid (control) ([5]; 100 mg/L): 100%; Insecticidal activity against peach aphid (control) ([5]; 600 mg/L): 100%; inhibition rate against bladder cancer cell line T24 [10]: 100%; inhibition rate against cucumber gray mold [6]: 80%; control of the armyworm ([8]; 100 mg/L): 90%; control of the armyworm ([8]; 600 mg/L): 90%; protectant activity against corn rust ([9]; 6.25 mg/L): 90%; protectant activity against corn rust ([9]; 25 mg/L): 100%; protectant activity against corn rust ([9]; 100 mg/L): 100%; protectant activity against corn rust ([9]; 400 mg/L): 100%
COc1cc(CNc2ncnc(C)c2Cl)ccc1O [CK3] | 0% | 0% | 0% | 0% | 0% | 0% | – | 0% | 0% | – | – | –
Cc1ncnc(NCCc2ccc3c(c2)OCO3)c1Cl [Compound 5] | – | – | – | – | – | – | – | – | – | – | – | protectant activity against cucumber downy mildew ([1]; 12.5 mg/L): 100%; protectant activity against cucumber downy mildew ([1]; 25 mg/L): 100%; protectant activity against cucumber downy mildew ([1]; 50 mg/L): 100%; protectant activity against cucumber downy mildew ([1]; 100 mg/L): 100%; protectant activity against cucumber downy mildew ([1]; 400 mg/L): 100%; protectant activity against wheat powdery mildew ([3]; 6.25 mg/L): 75%; protectant activity against wheat powdery mildew ([3]; 25 mg/L): 85%; protectant activity against wheat powdery mildew ([3]; 100 mg/L): 100%; protectant activity against wheat powdery mildew ([3]; 400 mg/L): 100%; Insecticidal activity against peach aphid [5]: 0%; Insecticidal activity against peach aphid (control) ([5]; 100 mg/L): 52%; Insecticidal activity against peach aphid (control) ([5]; 600 mg/L): 100%; inhibition rate against bladder cancer cell line T24 [10]: 100%; inhibition rate against rice blast ([7]; in vitro, 25 mg/L, 24 hours): 80%; protectant activity against corn rust ([9]; 6.25 mg/L): 100%; protectant activity against corn rust ([9]; 25 mg/L): 100%; protectant activity against corn rust ([9]; 100 mg/L): 100%; protectant activity against corn rust ([9]; 400 mg/L): 100%
COc1ccc(CCNc2ncnc(C)c2Cl)cc1OC [CK8] | 98% | 0% | 100% | – | 0% | 0% | 50% | 0% | 100% | 0% | – | pest or weed control at 25 µg/mL ([1]; Cucumis sativus, 168 h, 25 mg/L, read-out: protectant activity against cucumber downy mildew): 0%; pest or weed control at 50 µg/mL ([1]; Cucumis sativus, 168 h, 50 mg/L, read-out: protectant activity against cucumber downy mildew): 20%; pest or weed control at 100 µg/mL [1, 14]: 45%; pest or weed control at 6.25 µg/mL ([3]; Triticum aestivum, 168 h, 6.25 mg/L, read-out: protectant activity against wheat powdery mildew): 0%; pest or weed control at 25 µg/mL [3, 15]: 10%; pest or weed control at 100 µg/mL [3, 16]: 80%
Cc1ncnc(NC(C)c2ccc3c(c2)OC(F)(F)O3)c1Cl (stereo not shown) [PC-1] | – | 0% | 100% | 51% | 52% | 50% | – | 0% | 70% | 20% | 0% | pest or weed control at 25 µg/mL [3, 15]: 0%; pest or weed control at 100 µg/mL [3, 16]: 80%; inhibition at 8.3 µg/mL [7, 13]: 0%; pest or weed control at 25 µg/mL ([9]; 25 mg/L): 0%
c1ccc2c(NCc3ccc4c(c3)OCO4)ncnc2c1 [CK13] | 0% | 0% | 0% | 0% | 50% | 0% | 0% | 0% | 40% | 0% | 0% | pest or weed control at 10 µg/mL [5]: 0%
c1ccc2c(NCCc3ccc4c(c3)OCO4)ncnc2c1 [ACTA-1] | – | 40% | 0% | 0% | 0% | 50% | – | 40% | 0% | – | – | –
ClCc1ncnc(NCCc2ccc3c(c2)OCO3)c1Cl [CK11] | 30% | 0% | 0% | 25% | 88% | 50% | – | 0% | 85% | 35% | 0% | pest or weed control at 100 µg/mL [1, 14]: 0%; pest or weed control at 10 µg/mL [5]: 0%; pest or weed control at 25 µg/mL ([9]; 25 mg/L): 0%
Cc1ncnc(NCCc2ccc(O)cc2)c1Cl [CK4] | 0% | 0% | 0% | 0% | 0% | 0% | 0% | 0% | 0% | – | – | –
